# How the values were obtained:
# Experiment in all cases: Thermofluor thermal shift (Sypro orange)
# Type in all cases: binding
# [1] = molecular target: T1, GbpAHi (Haemophilus influenzae, UniProt P33950)
# T1 construct: gene hbpA; soluble non-lipidated form; leader replaced by PelB; his-tag
# Source text: Thermofluor thermal shift (Sypro orange) on GbpAHi
# [2] = molecular target: T2, hbpA (Actinobacillus pleuropneumoniae, UniProt A3N3U8, C22M); settings: read-out: GbpAAp
# T2 construct: soluble non-lipidated form; mature start at position 22; C-terminal his-tag; E. coli, pET20b
# Source text: Thermofluor thermal shift (Sypro orange) on GbpAAp
# [3] = molecular target: T3, GbpAHp (Glaesserella parasuis, UniProt B8F653)
# T3 construct: gene hbpA; non-lipoprotein; leader replaced by PelB; his-tag
# T3 sequence (B8F653 23-531): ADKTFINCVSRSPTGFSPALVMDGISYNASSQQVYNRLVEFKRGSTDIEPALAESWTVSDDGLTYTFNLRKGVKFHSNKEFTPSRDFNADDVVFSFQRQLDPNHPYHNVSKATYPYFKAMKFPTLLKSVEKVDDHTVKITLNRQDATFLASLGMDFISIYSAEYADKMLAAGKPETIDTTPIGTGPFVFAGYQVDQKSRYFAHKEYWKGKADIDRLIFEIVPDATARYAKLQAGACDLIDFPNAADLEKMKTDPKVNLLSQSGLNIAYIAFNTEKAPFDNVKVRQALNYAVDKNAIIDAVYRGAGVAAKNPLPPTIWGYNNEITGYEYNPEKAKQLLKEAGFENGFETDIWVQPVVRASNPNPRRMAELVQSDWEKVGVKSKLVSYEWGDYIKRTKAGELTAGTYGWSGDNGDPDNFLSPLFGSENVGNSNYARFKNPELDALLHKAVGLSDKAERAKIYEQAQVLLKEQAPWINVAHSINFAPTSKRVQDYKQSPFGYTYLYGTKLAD
# Source text: Thermofluor thermal shift (Sypro orange) on GbpAHp
# T1 sequence (P33950 19-547): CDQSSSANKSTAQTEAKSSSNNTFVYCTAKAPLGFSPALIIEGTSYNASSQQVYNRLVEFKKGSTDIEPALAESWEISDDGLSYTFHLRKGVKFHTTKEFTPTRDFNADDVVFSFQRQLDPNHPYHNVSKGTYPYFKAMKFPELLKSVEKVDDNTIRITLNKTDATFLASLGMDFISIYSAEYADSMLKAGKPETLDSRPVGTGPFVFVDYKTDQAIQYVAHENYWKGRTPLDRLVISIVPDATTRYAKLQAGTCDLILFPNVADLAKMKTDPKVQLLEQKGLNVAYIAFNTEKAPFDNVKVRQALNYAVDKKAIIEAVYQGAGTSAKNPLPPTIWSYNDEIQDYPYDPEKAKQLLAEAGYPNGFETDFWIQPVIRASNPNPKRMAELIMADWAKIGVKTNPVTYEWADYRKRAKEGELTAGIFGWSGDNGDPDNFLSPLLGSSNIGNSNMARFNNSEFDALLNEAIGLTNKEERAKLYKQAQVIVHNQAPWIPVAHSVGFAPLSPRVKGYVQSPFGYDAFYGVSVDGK
# T2 sequence (A3N3U8 22-545 C22M): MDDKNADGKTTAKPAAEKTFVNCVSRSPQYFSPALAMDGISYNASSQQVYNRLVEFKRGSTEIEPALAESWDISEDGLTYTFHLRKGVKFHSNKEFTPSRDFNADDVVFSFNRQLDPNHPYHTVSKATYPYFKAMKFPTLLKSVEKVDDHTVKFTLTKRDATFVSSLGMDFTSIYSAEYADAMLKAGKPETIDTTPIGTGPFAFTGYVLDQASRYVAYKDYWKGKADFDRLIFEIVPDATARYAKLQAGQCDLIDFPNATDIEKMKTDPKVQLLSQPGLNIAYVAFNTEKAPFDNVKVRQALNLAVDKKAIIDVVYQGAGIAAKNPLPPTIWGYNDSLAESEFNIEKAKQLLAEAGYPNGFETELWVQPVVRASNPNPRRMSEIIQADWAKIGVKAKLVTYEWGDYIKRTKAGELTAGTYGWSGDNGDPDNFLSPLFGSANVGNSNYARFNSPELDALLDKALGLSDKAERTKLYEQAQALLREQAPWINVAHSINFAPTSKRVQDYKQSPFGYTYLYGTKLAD
Structure (SMILES),ΔTm at 1000 µM [1],ΔTm at 1000 µM [2],ΔTm at 1000 µM [3]
N[C@@H](CCC(=O)N[C@@H](CS)C(=O)NCC(=O)O)C(=O)O [GSH],12.5 °C,–,–
CSC[C@H](NC(=O)CC[C@H](N)C(=O)O)C(=O)NCC(=O)O [S-methylglutathione],10.5 °C,–,–
N[C@@H](CCC(=O)N[C@@H](CSN=O)C(=O)NCC(=O)O)C(=O)O [S-nitrosoglutathione],7 °C,6.5 °C,9.5 °C
N[C@@H](CCC(=O)N[C@@H](CSSC[C@H](N)C(=O)O)C(=O)NCC(=O)O)C(=O)O [glutathione cysteine disulfide],10 °C,6 °C,7 °C
